Test results published in patent US5401748A, “2,14-disubstituted ergolines, their production and use in pharmaceutical compositions” (Schering Aktiengesellschaft, priority 1991, dated 1995).

System: central dopamine receptors
Test: Stereotypy-triggering activity in rats after one-time i.p. pretreatment (method of Horowski and Wachtel)
Type: in vivo, female Wistar rats
Details: ip, rat
Protocol: The dopaminergic agonistic effect is determined, for example, with the help of method, described by Horowski and Wachtel, of the registration of stereotypies by observation of behavior (Eur. J. Pharmacol. 36: 373-383, 1976):
Immediately after intraperitoneal test substance or vehicle administration,female Wistar rats (90-110 g) are placed individually in observation cages made from transparent acrylic glass (25×19×13.5 cm). At 30, 60, 120, 240, 360 and 480 minutes after pretreatment, the presence of behavior stereotypies (chewing, licking, gnawing) is registered by observation of the animals for 2 minutes (i.e., of 30th-32nd, 60th-62nd, 120th-122nd minutes, etc.). Animals which during the 2-minute observation period show continuous chewing, licking and gnawing movements (longer than 30 seconds) are considered stereotypic.
The number of animals per treatment group with behavior stereotypies is determined during the various observation times. The different treatment groups consist of n=8 animals each. Average effective dose (ED50) is determined with 95% range of confidence for the various observation times with the help of probit analysis.
At 30, 60, 120, 240, 360 and 480 minutes after i.p. pretreatment with test substance or vehicle, the presence of behavior stereotypies in rats (chewing, licking, gnawing) was determined by observation for 2 minutes (i.e., of 30th-32nd, 60th-62nd, 120th-122nd minutes, etc.).

CCCN1C[C@@H](NC(=O)N(CC)CC)C[C@@H]2c3ccc(C)c4[nH]c(C)c(c34)C[C@H]21 [3-(2,14-Dimethyl-6-propyl-8α-ergolinyl)-1,1-diethylurea]
ED50 (0.5 h, 30 min, n=8, 95% range of confidence by probit analysis): 0.055 mg/kg
ED50 (1 h, 60 min, n=8, probit analysis): < 0.025 mg/kg
ED50 (2 h, 120 min, n=8, probit analysis): < 0.025 mg/kg
ED50 (4 h, 240 min, n=8, probit analysis): < 0.025 mg/kg
ED50 (6 h, 360 min, n=8, 95% range of confidence by probit analysis): 0.071 mg/kg
ED50 (8 h, 480 min, n=8, 95% range of confidence by probit analysis): 0.072 mg/kg
